Values of other authors as cited in patent US20160346319A1, “NO/HE GAS MIXTURE WITH BA[…]” (AIR LIQUIDE SANTE (INTERNATIONAL), priority 2014, published 2016).

System: bacteria
Details: high dose, certain publications

[N]=O [NO, nitric oxide]
dose of NO showing an antibacterial effect: at least 150 ppm by volume
